Results reported in paper PMC9321647, “Curcumin-Based β-Diketo Ligands for Ga^3+: Thermodynamic Investigation of Potential Metal-Based Drugs” (Pharmaceuticals, 2022).
Like-named read-outs stand apart in the source and are kept apart here.

How the values were obtained:
[1] = Spectrophotometric pH-metric titrations of Ga^3+:ligand systems (stability constants, pGa, speciation); format: physicochemical; settings: for log β 112 overall stability constant (Ga^3+) / log β 124 overall stability constant (Ga^3+) / logK11 apparent formation constant (Ga^3+, M:L 1:1) / logK12 apparent formation constant (Ga^3+, M:L 1:2): 298 K; for log β 112 overall stability constant (Ga^3+) / log β 124 overall stability constant (Ga^3+): HypSpec; for logK11 apparent formation constant (Ga^3+, M:L 1:1) / logK12 apparent formation constant (Ga^3+, M:L 1:2): estimated from logβMLH; for Prevailing Species (pH 5.5) / Prevailing Species (pH 7.4): Ga^3+ complex species; for Prevailing Species (pH 7.4): ** possible formation of gallium hydroxide species; for pGa (−log[Ga^3+]free): [Ga^3+]total = 1 μM, [L]total = 10 μM, pH 7.4, 25 °C
Method: (§1) UV–visible spectra were recorded with a JASCO V-570 UV/Vis/NIR spectrophotometer at 298 K in the 250–600 nm spectral range employing quartz cells (1 cm optical path). To perform spectrophotometric titrations, ligands (denoted generally as L in the following) were dissolved in methanol to give a mother solution (2.50 mM), that was then diluted in water in order to obtain a final concentration of 50 μM. The metal/ligand (M:L) solutions were obtained by adding appropriate quantities of Ga(NO3)3 as methanol solutions (5–10 mM) in order to obtain the metal-to-ligand 1:1 molar ratio (L = 50 μM and V = 25 mL). For both L and M:L systems, pH (initial value of about 5) was varied by adding small amounts (<1 μL) of concentrated NaOH (4 M) up to ca. pH 11, thus to consider volume variations negligible. To evaluate the complexation ratio, constant additions of the M solution (10 µL each time, M = 10^–2 M) were dropped into the ligand solution (V = 25 mL, L = 50 μM) using a micropipette in order to reach different M:L molar ratios. A constant ionic strength (NaNO3, 0.1 M) was maintained in all experiments. Spectrophotometric investigations of iron(III) systems were performed in the same conditions; the Fe^3+ solution was freshly prepared in methanol starting from Fe(NO3)3·9H2O. The overall protonation constants (logβqr) and the overall stability constants of metal complexes (logβpqr) were evaluated from spectrophotometric data. The stability constants (βpqr), defined by the following equations:(3) pM^m++qL^l^−+rH^+⇌MpLqHr(mp−lq+r) (4) βpqr=[MpLqHr(mp−lq+r)]/[M^m+]^p·[L^l−]^q·[H^+]^r where L is the ligand in the completely dissociated form and H is proton, were refined using least-squares calculation in HypSpec. The results of least-squares calculation include the standard deviations and correlation coefficients of the refined parameters. The quantities are obtained by performing error propagation calculation from the experimental errors onto the parameters. The stability constant refinement furnishes least-squares estimates of the standard deviation, σ, of the stability constant β. The error on logβ is calculated as follows: σ(logβ) = [log(β + σ) − log(β − σ)]/2.
Hydroxide species, such as [Ga(OH)2]^+, were taken into account for calculations. The hydrolysis constants for Ga^3+ are as follows: logβ1,1,0 = −3.93; logβ2,1,0 = −7.73; logβ3,1,0 = −12.38; logβ4,1,0 = −15.96; logβ32,13,0 = −66.3; logβ3,1,0(s) = −3.54 [43]; pGa is defined as (−log[Ga^3+]free) and is calculated at specific conditions (Ga^3+total = 1 μM, Ltotal = 10 μM, pH 7.4, 25 °C). For the calculation of the iron(III) overall stability constants, the presence of [Fe(OH)]^2+, [Fe(OH)2]^+ and [Fe(OH)3] species was taken into account.

[2] = DPPH radical-scavenging assay; settings: free ligand
Method: The antioxidant activity of compounds 4 and 5 and their Ga^3+ metal complexes at the M:L 1:1 and 1:2 molar ratio was evaluated in terms of hydrogen-donating or radical scavenging ability using a stable DPPH radical, 1,1-diphenyl-2-picrylhydrazyl radical, following the procedure previously reported. The percentage of inhibition (%In) of the DPPH radical by each sample was calculated according to the following formula: %In=A0−At/A0×100 where A0 represents the absorbance of the control (DPPH radical) at time 0, while At refers to the absorbance of the mixture antioxidant/DPPH at time t (120 min). Values of absorbance were corrected considering volume dilution. All the determinations were performed in duplicate.

[3] = Spectrophotometric pH titrations of ligands (protonation constants, pKa); format: physicochemical; settings: 298 K; for logβ011 overall protonation constant / logβ012 overall protonation constant / logβ013 overall protonation constant: HypSpec, spectrophotometric data; for pKa: aqueous solution (methanol stock diluted in water)
Method: as §1

[4] = Kinetic stability of ligands in simulated physiological conditions (UV-Vis); format: physicochemical; settings: for Stability: percentage of the residual ligand after 4 h: PBS, pH 7.4, 37 °C in darkness; for Stability ranking (residual ligand after 4 h): rank among the 7 ligands, 1 = most stable
Method: The chemical stability of ligands and metal complexes at the M:L 1:L molar ratio at 37 °C in darkness was evaluated by UV−Vis spectroscopy as a change in absorbance in the 250−600 nm range over an overall period of 8 h. Solutions (5.0 × 10^–5 mol L^–1) of the ligands were prepared in 0.1 mol L^–1 phosphate-buffered solution (PBS) at pH 7.4. Spectra were recorded every 30 min. All profiles were linearized as the hyperbolic function defined by Equation (2), which represents an empirical model that describes drug decomposition or release well [42]:(2) t/f%=at+b where f% is the percentage of the residual compound at time t (min) referred to the starting concentration at time zero determined by reading the absorbance at λmax.

[5] = calculated from logβ values, * = keto–enol moiety dissociation

With “2-((4Z,6E)-5-hydroxy-7-(4-hydroxyphenyl)-4-((E)-3-(4-hydroxy-3-ethoxyphenyl) acryloyl) hepta-4,6-dien-1-yl)isoindoline-1,3-dione [Compound 5]” the “log β 112 overall stability constant (Ga^3+)” value [1] was 28.54 (3), the “log β 124 overall stability constant (Ga^3+)” value [1] was 57.00 (1) and the “logK11 apparent formation constant (Ga^3+, M:L 1:1)” value [1] was 8.09. The “logK12 apparent formation constant (Ga^3+, M:L 1:2)” value [1] was 16.1, the “Prevailing Species (pH 5.5)” value [1] was “[Ga(H2L)2]^+” and the “Prevailing Species (pH 7.4)” value [1] was “[Ga(H2L)2]^+”. For the same molecule, the “pGa (−log[Ga^3+]free)” value [1] was 23.2, the IC50 [2] was 32 µM and the “logβ011 overall protonation constant” value [3] was 10.44 (3). The “logβ012 overall protonation constant” value [3] was 20.45 (2), the “logβ013 overall protonation constant” value [3] was 29.58 (4) and the pKa1 [3, 5] was 9.13 (6). The pKa2 [3, 5] was 10.01 (5), the pKa3 [3, 5] was 10.44 (3) and the “Stability: percentage of the residual ligand after 4 h” value [4] was 52%. For the same molecule, the “Stability ranking (residual ligand after 4 h)” value [4] was 5.
In the case of `COc1cc(/C=C/C(=O)C(CCCN2C(=O)c3ccccc3C2=O)C(=O)/C=C/c2ccc(O)c(OC)c2)ccc1O` [Compound 4], the “log β 112 overall stability constant (Ga^3+)” value [1] is reported as 28.48 (5), the “log β 124 overall stability constant (Ga^3+)” value [1] is reported as 55.33 (5) and the “logK11 apparent formation constant (Ga^3+, M:L 1:1)” value [1] is reported as 8.04. For the same molecule, the “logK12 apparent formation constant (Ga^3+, M:L 1:2)” value [1] was 14.45, the “Prevailing Species (pH 5.5)” value [1] was “[Ga(H2L)2]^+” and the “Prevailing Species (pH 7.4)” value [1] was “[Ga(H2L)2]^+”. For the same molecule, the “pGa (−log[Ga^3+]free)” value [1] was 21.5, the IC50 [2] was 20 µM and the “logβ011 overall protonation constant” value [3] was 10.78 (4). The “logβ012 overall protonation constant” value [3] was 20.44 (6), the “logβ013 overall protonation constant” value [3] was 29.44 (6) and the pKa ([3]; calculated from logβ values, * = keto–enol moiety dissociation, read-out: pKa1) was 9. The pKa ([3]; calculated from logβ values, * = keto–enol moiety dissociation, read-out: pKa2) was 9.66, the pKa ([3]; calculated from logβ values, * = keto–enol moiety dissociation, read-out: pKa3) was 10.8 and the “Stability: percentage of the residual ligand after 4 h” value [4] was 42%. The “Stability ranking (residual ligand after 4 h)” value [4] was 7.
